{"source": "ChEMBL document CHEMBL1201862", "about": "“PubChem BioAssay data set” (2004)", "assay_in_all_cases": "NCI anticancer screen, dose series, 48 h", "key": {"786-0": {"test_system": "786-0"}, "A549": {"test_system": "A549"}, "ACHN": {"test_system": "ACHN"}, "BT-549": {"test_system": "BT-549"}, "CCRF-CEM": {"test_system": "CCRF-CEM"}, "COLO 205": {"test_system": "COLO 205"}, "DU-145": {"test_system": "DU-145"}, "HCC 2998": {"test_system": "HCC 2998"}, "HCT-116": {"test_system": "HCT-116"}, "HCT-15": {"test_system": "HCT-15"}, "HL-60": {"test_system": "HL-60"}, "HOP-62": {"test_system": "HOP-62"}, "HOP-92": {"test_system": "HOP-92"}, "HT-29": {"test_system": "HT-29"}, "Hs-578T": {"test_system": "Hs-578T"}, "IGROV-1": {"test_system": "IGROV-1"}, "K562": {"test_system": "K562"}, "KM12": {"test_system": "KM12"}, "LOX IMVI": {"test_system": "LOX IMVI"}, "M14": {"test_system": "M14"}, "MCF7": {"test_system": "MCF7"}, "MDA-MB-231": {"test_system": "MDA-MB-231"}, "MDA-MB-435": {"test_system": "MDA-MB-435"}, "MDA-N": {"test_system": "MDA-N"}, "MOLT-4": {"test_system": "MOLT-4"}, "Malme-3M": {"test_system": "Malme-3M"}, "NCI-H226": {"test_system": "NCI-H226"}, "NCI-H23": {"test_system": "NCI-H23"}, "NCI-H460": {"test_system": "NCI-H460"}, "NCI-H522": {"test_system": "NCI-H522"}, "NCI/ADR-RES": {"test_system": "NCI/ADR-RES"}, "OVCAR-3": {"test_system": "OVCAR-3"}, "OVCAR-4": {"test_system": "OVCAR-4"}, "OVCAR-5": {"test_system": "OVCAR-5"}, "OVCAR-8": {"test_system": "OVCAR-8"}, "PC-3": {"test_system": "PC-3"}, "RPMI-8226": {"test_system": "RPMI-8226"}, "RXF 393": {"test_system": "RXF 393"}, "SF-268": {"test_system": "SF-268"}, "SF-295": {"test_system": "SF-295"}, "SK-MEL-28": {"test_system": "SK-MEL-28"}, "SK-MEL-2": {"test_system": "SK-MEL-2"}, "SK-MEL-5": {"test_system": "SK-MEL-5"}, "SK-OV-3": {"test_system": "SK-OV-3"}, "SN12C": {"test_system": "SN12C"}, "SNB-19": {"test_system": "SNB-19"}, "SNB-75": {"test_system": "SNB-75"}, "SR": {"test_system": "SR"}, "SW-620": {"test_system": "SW-620"}, "T47D": {"test_system": "T47D"}, "TK-10": {"test_system": "TK-10"}, "U-251": {"test_system": "U-251"}, "UACC-257": {"test_system": "UACC-257"}, "UACC-62": {"test_system": "UACC-62"}, "UO-31": {"test_system": "UO-31"}}, "note": "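Briefly, cells in 96-well plates were exposed to five compound concentrations for 48 h, and endpoints were estimated by linear interpolation. GI50 is the concentration that inhibits growth by half.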 The source made the active and inactive calls. Cut-off read from the data, not from the text of the source: active = GI50 up to about 1.1 µM and inactive = higher.", "data": [{"molecule": "CCOC(=O)c1c(SCCN2CCCCC2)n(-c2ccccc2)c(=S)n(-c2ccccc2)c1=O", "values": [{"measurement": "GI50", "setting": "786-0", "value": "14.8 µM (inactive)"}, {"measurement": "GI50", "setting": "A549", "value": "> 54 µM (inactive)"}, {"measurement": "GI50", "setting": "ACHN", "value": "17.7 µM (inactive)"}, {"measurement": "GI50", "setting": "BT-549", "value": "16.6 µM (inactive)"}, {"measurement": "GI50", "setting": "CCRF-CEM", "value": "2.99 µM (inactive)"}, {"measurement": "GI50", "setting": "COLO 205", "value": "11.7 µM (inactive)"}, {"measurement": "GI50", "setting": "DU-145", "value": "29.6 µM (inactive)"}, {"measurement": "GI50", "setting": "HCC 2998", "value": "> 38.9 µM (inactive)"}, {"measurement": "GI50", "setting": "HCT-116", "value": "2.18 µM (inactive)"}, {"measurement": "GI50", "setting": "HCT-15", "value": 4.29, "unit": "µM"}, {"measurement": "GI50", "setting": "HL-60", "value": "3.49 µM (inactive)"}, {"measurement": "GI50", "setting": "HOP-62", "value": "14 µM (inactive)"}, {"measurement": "GI50", "setting": "HOP-92", "value": "16.3 µM (inactive)"}, {"measurement": "GI50", "setting": "HT-29", "value": "15.3 µM (inactive)"}, {"measurement": "GI50", "setting": "Hs-578T", "value": "26.1 µM (inactive)"}, {"measurement": "GI50", "setting": "IGROV-1", "value": "> 10 µM (inactive)"}, {"measurement": "GI50", "setting": "K562", "value": "3 µM (inactive)"}, {"measurement": "GI50", "setting": "KM12", "value": "19 µM (inactive)"}, {"measurement": "GI50", "setting": "LOX IMVI", "value": "12.8 µM (inactive)"}, {"measurement": "GI50", "setting": "M14", "value": "28.6 µM (inactive)"}, {"measurement": "GI50", "setting": "MCF7", "value": "5.85 µM (inactive)"}, {"measurement": "GI50", "setting": "MDA-MB-231", "value": "21.2 µM (inactive)"}, {"measurement": "GI50", "setting": "MDA-MB-435", "value": "16.3 µM (inactive)"}, {"measurement": "GI50", "setting": "MDA-N", "value": "18.5 µM (inactive)"}, {"measurement": "GI50", "setting": "MOLT-4", "value": "2.28 µM (inactive)"}, {"measurement": "GI50", "setting": "Malme-3M", "value": "16.4 µM (inactive)"}, {"measurement": "GI50", "setting": "NCI-H226", "value": "12.3 µM (inactive)"}, {"measurement": "GI50", "setting": "NCI-H23", "value": "16.9 µM (inactive)"}, {"measurement": "GI50", "setting": "NCI-H460", "value": "33.9 µM (inactive)"}, {"measurement": "GI50", "setting": "NCI-H522", "value": "16.7 µM (inactive)"}, {"measurement": "GI50", "setting": "NCI/ADR-RES", "value": "21.2 µM (inactive)"}, {"measurement": "GI50", "setting": "OVCAR-3", "value": "9.57 µM (inactive)"}, {"measurement": "GI50", "setting": "OVCAR-4", "value": "17.6 µM (inactive)"}, {"measurement": "GI50", "setting": "OVCAR-5", "value": "> 100 µM (inactive)"}, {"measurement": "GI50", "setting": "OVCAR-8", "value": "22.9 µM (inactive)"}, {"measurement": "GI50", "setting": "PC-3", "value": "14.6 µM (inactive)"}, {"measurement": "GI50", "setting": "RPMI-8226", "value": "2.74 µM (inactive)"}, {"measurement": "GI50", "setting": "RXF 393", "value": "13 µM (inactive)"}, {"measurement": "GI50", "setting": "SF-268", "value": "28.6 µM (inactive)"}, {"measurement": "GI50", "setting": "SF-295", "value": "> 100 µM (inactive)"}, {"measurement": "GI50", "setting": "SK-MEL-28", "value": "8.85 µM (inactive)"}, {"measurement": "GI50", "setting": "SK-MEL-2", "value": "> 100 µM (inactive)"}, {"measurement": "GI50", "setting": "SK-MEL-5", "value": "15.6 µM (inactive)"}, {"measurement": "GI50", "setting": "SK-OV-3", "value": "36.2 µM (inactive)"}, {"measurement": "GI50", "setting": "SN12C", "value": "19.2 µM (inactive)"}, {"measurement": "GI50", "setting": "SNB-19", "value": "> 78.3 µM (inactive)"}, {"measurement": "GI50", "setting": "SNB-75", "value": "15 µM (inactive)"}, {"measurement": "GI50", "setting": "SR", "value": "2.72 µM (inactive)"}, {"measurement": "GI50", "setting": "SW-620", "value": "3.79 µM (inactive)"}, {"measurement": "GI50", "setting": "T47D", "value": "4.6 µM (inactive)"}, {"measurement": "GI50", "setting": "TK-10", "value": "18 µM (inactive)"}, {"measurement": "GI50", "setting": "U-251", "value": "28.6 µM (inactive)"}, {"measurement": "GI50", "setting": "UACC-257", "value": "12.4 µM (inactive)"}, {"measurement": "GI50", "setting": "UACC-62", "value": "25.8 µM (inactive)"}, {"measurement": "GI50", "setting": "UO-31", "value": "18.2 µM (inactive)"}]}]}
